Series [1] addresses T1, sarkosyl insoluble (SI) α-synuclein (human α-SYN A53T) (Homo sapiens, UniProt P37840, A53T).
T1 construct: expressed in transfected cells
The experiment in a line: MJFF-14-6-4-2 conformation specific ELISA of sarkosyl insoluble α-synuclein after compound treatment. The series is classed as cell-based. The conditions noted are these: 1 μM compound; protein remaining relative to DMSO control; PFF induced A53T α-synuclein overexpressing HEK293 cells; read-out: Protein Degradation at 1 μM. How it is done:
(§1) Targeted degradation of sarkosyl insoluble (SI) α-synuclein via exemplary bifunctional compounds was assessed by MJFF-14-6-4-2 conformation specific ELISA following treatment of PFF induced A53T α-synuclein overexpressing HEK293 cells with 1 μM exemplary compound compared to DMSO vehicle control. Degradation activity of the exemplary compounds of Table 2 is expressed as % DMSO control. […] However, the effect of bifunctional targeting degraders, shown in FIG. 5, required the intact E3 ligase binding domain.
(§2) Trex293 (doxycycline inducible) cells stably expressing human α-SYN A53T (monoclonal) were plated in poly-d-lysine coated T-75 tissue culture flasks (4.5×10e6 cells/flask) in DMEM with 10% tet-free FBS, 10 μg/ml blasticidin, and 400 μg/ml zeocin. After an overnight incubation, the cells were induced to express α-SYN by treatment with 1 μg/ml doxycycline (Dox) and exemplary bifunctional compound. After a 24 hour dox induction, the medium on the cells was changed to Opti-MEM followed by treatment with α-SYN pre-formed fibrils** (PFFs)(5 μg/flask) pre-complexed with Lipofectamine 2000 transfection reagent for 4 hours. After PFF treatment, the medium was changed back to DMEM with the supplements described above and exemplary bifunctional compound for 48 hours.
(§3) Cell pellets were harvested from each flask using 0.25% trypsin followed by spinning at 500×g for 5 minutes. Each pellet was resuspended in 1 ml cold buffer H [Buffer H-10 mM Tris, 1 mM EGTA, 0.8M NaCl, 10% sucrose, pH7.4 containing 1× protease and phosphatase inhibitors] containing protease and phosphatase inhibitors. The resuspended pellets were incubated on ice for 20 minutes followed by centrifugation at 27,200×g for 20 minutes at 4° C. The supernatants were adjusted to 1% sarkosyl (Sigma) and 1% 2-mercaptoethanol followed by incubation for 1 hour at 37° C. on an orbital shaker set to 400 rpm. The samples were then spun at 150,000×g for 35 minutes at room temperature. The supernatant was removed and saved as the soluble fraction and the insoluble pellet was resuspended in 25 μl tris-buffered saline (TBS). Protein concentrations were determined by NanoDrop, and normalized protein concentrations were analyzed by WES capillary electrophoresis as well as an α-SYN oligomer ELISA.
Recombinant human α-SYN was purchased from Proteos. 1 mg aliquots were supplied at 10 mg/ml in 10 mM Tris, 50 mM NaCl, pH7.6. The aliquot was thawed on ice followed by centrifugation at 4° C. for 10 minutes at 12,000×g to pellet any insoluble material. The supernatant was removed and quantitated on a NanoDrop (A280) using Beer's Law (ε=5960 M-1 cm-1). The concentration was adjusted to 5 mg/ml in PBS followed by vortexing for 3 seconds to mix contents. The mixture was incubated in an orbital shaker set to 37° C. at 1,000 rpm for 7 days followed by aliquoting into individual use vials. Prior to addition to cells, an aliquot was thawed at room temperature, then diluted to 1 mg/ml with phosphate-buffered saline (PBS) followed by sonication for 1 minute with a probe sonicator (output 1; 90% duty cycle) in a chem hood.
Coming Costar high bind black well plates were coated with MJFR 14-6-4-2 (Abcam) at 1 μg/ml for 1 hour at 37° C. followed by washing with 1×TBS+0.1% tween-20 (TBS-T) then blocking with 3% bovine serum albumin (BSA) in TBS. After re-washing, samples were added after dilution in diluent (1% BSA/TBS-T). Non-sonicated PFF was used to generate a standard curve. The plates were incubated with sample overnight at 4° C. with shaking. The following day alkaline phosphatase (AP) conjugated MJFR 14-6-4-2 was added to the plate without washing followed by incubation at room temperature for 1 hour with shaking or rocking. The plates were then re-washed and substrate (CDP star alkaline phosphatase detection reagent) was added followed by a 30 minute incubation at room temperature. The plate was read on a luminescence plate reader. The counts were log transformed and read off the standard curve. […]
(In an ELISA, binding on a coated surface is turned into a signal by an enzyme label.)

The subject of series [2] is PFF induced HEK293 TREX α-syn A53T cells. Description: Cytotoxicity by visual inspection of treated cells. The series is classed as cell-based, human. Particulars: 1 μM. How it is done: as §1, §2
To assess targeted degradation of sarkosyl insoluble α-synuclein, exemplary bifunctional compounds designed to bind to oligomeric α-synuclein were tested at 1 μM in PFF induced HEK293 TREX α-syn A53T cells.

Series [3] addresses T2, SI A53T α-synuclein protein oligomers (Homo sapiens, UniProt P37840, A53T).
T2 construct: expressed in transfected cells
Description: E3 ligase ligand competition experiment (Oligomer ELISA). The series is classed as cell-based. The conditions noted are these: for Degradation activity with co-incubated excess E3 ligase ligand: 1 uM compound plus 15-fold molar excess E3 ligase ligand (VHL Ligand with 7, Cereblon Ligand with 23), FIG. 6A bars 2 and 4; for Reduction of SI A53T α-synuclein oligomers (Oligomer ELISA), compound alone: 1 uM compound, no competitor, FIG. 6A bars 1 and 3. How it is done: FIGS. 6A and 6B. α-Synuclein bifunctional degradation compound activity requires the E3 ligase activity for effective degradation. Pre-formed alpha-synuclein fibrils (α-syn PFFs) were added to TREX tetracycline inducible HEK293 cells that overexpress A53T mutant α-syn to induce detergent-insoluble oligomers as measured by Oligomer ELISA. Doxycycline induced α-syn A53T cells were treated with PFFs to produce higher order oligomeric α-syn A53T in the sarkosyl insoluble fraction and SI α-syn oligomers were detected by ELISA, as described in below. Exemplary bifunctional degradation compounds 7 and 23 at 1 uM concentration, used to generate the data shown in bars 1 and 3, reduced sarkosyl insoluble α-syn.
as §2, §3
Coming Costar high bind black well plates were coated with MJFR 14-6-4-2 (Abcam) at 1 μg/ml for 1 hour at 37° C. followed by washing with 1×TBS+0.1% tween-20 (TBS-T) then blocking with 3% bovine serum albumin (BSA) in TBS. […] The plate was read on a luminescence plate reader. The counts were log transformed and read off the standard curve. […]

The structures appear in SMILES notation.

Take `Cc1ncsc1-c1ccc([C@H](C)NC(=O)[C@@H]2C[C@@H](O)CN2C(=O)[C@@H](NC(=O)COCCOCCOc2ccc(CN3C(=O)C(=CC=Cc4ccc([N+](=O)[O-])cc4)c4ccccc43)cc2)C(C)(C)C)cc1` (single isomer, unassigned) [Exemplary Compound 7]: the remaining activity at 1 µM in series [1] was in the range of 35 to 70%. Further, the “Cytotoxicity at the concentration tested” value in series [2] is given as “without any visual impact to cell health”. Further, in series [3], the “Degradation activity with co-incubated excess E3 ligase ligand” value is given as “effectively competed” and the “Reduction of SI A53T α-synuclein oligomers (Oligomer ELISA), compound alone” value is given as “effectively reduced”.

Consider `O=C1CCC(N2C(=O)c3ccc(N4CCN(CCN5CCC(OC6CN(CCCN7c8ccccc8Sc8ccccc87)C6)CC5)CC4)cc3C2=O)C(=O)N1` (stereo not shown) [Exemplary Compound 23, 5-(4-(2-(4-((1-(3-(10H-phenothiazin-10-yl)propyl)azetidin-3-yl)oxy)piperidin-1-yl)ethyl)piperazin-1-yl)-2-(2,6-dioxopiperidin-3-yl)isoindoline-1,3-dione], for which, in series [1], the remaining activity at 1 µM lay in the range of 35 to 70%. In addition, in series [3], the “Degradation activity with co-incubated excess E3 ligase ligand” value is listed as “effectively competed” and the “Reduction of SI A53T α-synuclein oligomers (Oligomer ELISA), compound alone” value is “effectively reduced”.

(Values after US12594264B2, “Modulators of alpha-synuclein proteolysis and associated methods of use” (Arvinas Operations, Inc., priority 2018, dated 2026).)
